Results reported in article PMC3549684 (Bioorganic & medicinal chemistry letters, 2012).

Columns and labels:
[1] = test system: serine hydrolases detected in mouse brain; format: biochemical; conditions: FP-Rh, concentrations up to 10 µM
[2] = test system: other detected serine hydrolase activities in the PC3 cell proteome; assay: competitive ABPP with FP-Rh in PC3 cell proteome, selectivity; format: biochemical, human; conditions: FP-Rh probe
[3] = test system: other ~40 serine hydrolases detected in PC3 cells; assay: ABPP-SILAC of inhibitor-treated PC3 cells in situ, other serine hydrolases; format: cell-based, human; conditions: 100 nM, 4 hours
[4] = test system: diabetic and hypercholesterolemic swine; conditions: cited from earlier work
ApoE-deficient mice = conditions: cited from earlier work
[5] = test system: human patients with coronary heart disease; conditions: cited from earlier work
[6] = target: T1, recombinant mouse Lp-PLA2 (Mus musculus, UniProt Q60963); conditions: previously shown; cited from earlier work
T1 sequence (Q60963 22-440): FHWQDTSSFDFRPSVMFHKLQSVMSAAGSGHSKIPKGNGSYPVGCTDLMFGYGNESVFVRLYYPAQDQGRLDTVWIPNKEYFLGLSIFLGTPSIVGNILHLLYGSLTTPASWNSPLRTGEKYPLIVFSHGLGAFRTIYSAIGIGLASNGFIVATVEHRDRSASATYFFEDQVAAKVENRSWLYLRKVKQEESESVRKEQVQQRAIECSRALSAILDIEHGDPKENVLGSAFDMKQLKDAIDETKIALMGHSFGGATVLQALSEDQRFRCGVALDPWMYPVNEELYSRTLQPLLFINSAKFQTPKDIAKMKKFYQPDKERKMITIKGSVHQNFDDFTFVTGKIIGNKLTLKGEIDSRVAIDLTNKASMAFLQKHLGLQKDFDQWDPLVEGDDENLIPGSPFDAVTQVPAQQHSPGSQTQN

Compound	cross-reactivity with other serine hydrolases [1]	inhibition of other detected serine hydrolase activities [2]	effect on other ~40 serine hydrolases in situ [3]	atherosclerotic plaque formation [4]	plasma Lp-PLA2 activity [4]	atherosclerotic plaque formation (ApoE-deficient mice)	plasma Lp-PLA2 activity (ApoE-deficient mice)	atherosclerotic plaque formation [5]	plasma Lp-PLA2 activity [5]	inhibition of mouse Lp-PLA2 [6]
CCN(CC)CCN(Cc1ccc(-c2ccc(C(F)(F)F)cc2)cc1)C(=O)Cn1c(SCc2ccc(F)cc2)nc(=O)c2c1CCC2 [darapladib]	neither darapladib nor JMN4 cross-reacted	not inhibited	not affecting any	significantly decrease	significantly decrease	significantly decrease	significantly decrease	significantly decrease	significantly decrease	
CCCCCCCCCCC[C@@H](C[C@@H]1OC(=O)[C@H]1CCCCCC)OC(=O)[C@H](CC(C)C)NC=O [THL, tetrahydrolipstatin]										inhibited
